Experiments:
[1] = tested on: DSS-induced ulcerative colitis; details: chronic 2% DSS murine model, previous data obtained by CRL; cited from earlier work
[2] = tested on: Campylobacter jejuni (ATCC 33291); assay: Agar well diffusion assay; format: cell-based; details: C. jejuni; 100 μL culture per 9 mm well, 24 hours; ciprofloxacin 5 μg
Protocol: (§1) The ability of the Lactobacillus species L. diolivorans, L. paracasei, L. parafarraginis, L. rapi and L. zeae deposited pursuant to the Budapest Treaty as described hereinbefore were tested for their ability to inhibit the growth of bacterial pathogens associated with inflammation and various inflammatory conditions. Pathogens tested for this purpose were Campylobacter jejuni (ATCC 33291), Helicobacter pylori (ATCC 700824), Clostridium difficile (ATCC 9689), Salmonella typhimurium (ATCC 29630), Yersinia enterocolitica (ATCC 23715), Citrobacter sp (ATCC 51378), Streptococcus pyogenes (ATCC 19615), Streptococcus mutans (ATCC 25175), Klebsiella oxytoca (ATCC 700324), and Proteus mirabilis (ATCC 25933). C. jejuni and H. pylori were grown under microaerobic conditions at 37° C. in 5% Columbia horse blood agar (CBA). S. typhimurium, Y. enterocolitica, Citrobacter sp., K. oxytoca and P. mirabilis were grown under aerobic conditions at 37° C. in nutrient agar. S. pyogenes and S. mutans were grown under aerobic conditions with 5% CO2 at 37° C. in 5% CBA. C. difficile was grown under anaerobic conditions at 37° C. in 5% CBA.
(§2) Inhibition of pathogen growth was determined using an agar well diffusion assay. Cultures of the five test Lactobacillus species were grown in MRS broth for 24 hours at 37° C. Each pathogen was sub-cultured onto nutrient agar plates or 5% CBA plates and incubated under the appropriate conditions (as described above) prior to resuspension in DPBS to give a McFarland standard of 0.5 (equivalent to 10^8 CFU/mL). Each 0.5 McFarland standardised culture was spread, using a swab, onto nutrient agar plates or CBA plates and allowed to soak in prior to making 9 mm wells. 100 μL of each test Lactobacillus, was then added to individual wells and the plates were incubated for 24 hours at 37° C. […] Following incubation, zones of inhibition or zones of growth reduction (hazing of growth) were measured (mm) and recorded. Two readings were taken for each zone and three replicates were used.

[3] = tested on: Citrobacter sp (ATCC 51378); assay: Agar well diffusion assay; format: cell-based; details: 100 μL culture per 9 mm well, 24 hours, ciprofloxacin 5 μg
Protocol: as §1, §2

[4] = tested on: Helicobacter pylori (ATCC 700824); assay: Agar well diffusion assay; format: cell-based; details: H. pylori; 100 μL culture per 9 mm well, 24 hours; ciprofloxacin 5 μg
Protocol: as §1, §2

[5] = tested on: Klebsiella oxytoca (ATCC 700324); assay: Agar well diffusion assay; format: cell-based; details: K. oxytoca; 100 μL culture per 9 mm well, 24 hours; ciprofloxacin 5 μg
Protocol: as §1, §2

[6] = tested on: Proteus mirabilis (ATCC 25933); assay: Agar well diffusion assay; format: cell-based; details: P. mirabilis; 100 μL culture per 9 mm well, 24 hours; ciprofloxacin 5 μg
Protocol: as §1, §2

[7] = tested on: Salmonella typhimurium (ATCC 29630); assay: Agar well diffusion assay; format: cell-based; details: S. typhimurium; 100 μL culture per 9 mm well, 24 hours; ciprofloxacin 5 μg
Protocol: as §1, §2

[8] = tested on: Streptococcus mutans (ATCC 25175); assay: Agar well diffusion assay; format: cell-based; details: S. mutans; 100 μL culture per 9 mm well, 24 hours; ciprofloxacin 5 μg
Protocol: as §1, §2

[9] = tested on: Streptococcus pyogenes (ATCC 19615); assay: Agar well diffusion assay; format: cell-based; details: S. pyogenes; 100 μL culture per 9 mm well, 24 hours; ciprofloxacin 5 μg
Protocol: as §1, §2

[10] = tested on: Yersinia enterocolitica (ATCC 23715); assay: Agar well diffusion assay; format: cell-based; details: Y. enterocolitica; 100 μL culture per 9 mm well, 24 hours; ciprofloxacin 5 μg
Protocol: as §1, §2

Escherichia coli K12 = assay: Agar well diffusion assay; format: cell-based; details: E. coli, includes well diameter of 9 mm
Protocol: as §2
(§3) The ability of L. diolivorans, L. paracasei, L. parafarraginis, L. rapi and L. zeae deposited pursuant to the Budapest Treaty as described hereinbefore were then tested for their ability to inhibit the growth of pathogenic bacteria Staphylococcus aureus (ATCC 29213 and ATCC 25923), Staphylococcus epidermidis (clinical isolate), Pseudomonas aeruginosa (ATCC 27853) and Escherichia coli K12. These pathogens were grown under aerobic conditions at 37° C. in nutrient agar. Inhibition of growth was determined using an agar well diffusion assay as described above. In addition, cell free supernatants derived from culture of the Lactobacillus species were also tested. Briefly, after 24 hours growth, cultures of Lactobacillus were centrifuged at 10,000×g and the supernatant filter sterilised through a 0.2 μm membrane. 100 μl of cell free supernatant was added to the wells containing pathogen.

[11] = tested on: Pseudomonas aeruginosa (ATCC 27853); assay: Agar well diffusion assay; format: cell-based; details: P. aeruginosa, includes well diameter of 9 mm
Protocol: as §2, §3

[12] = tested on: Staphylococcus aureus (ATCC 25923); assay: Agar well diffusion assay; format: cell-based; details: S. aureus (ATCC 25923), includes well diameter of 9 mm
Protocol: as §2, §3

[13] = tested on: Staphylococcus aureus (ATCC 29213); assay: Agar well diffusion assay; format: cell-based; details: S. aureus (ATCC 29213), includes well diameter of 9 mm
Protocol: as §2, §3

[14] = cell free supernatants derived from Lactobacilli cultures

## Nc1ccc(O)c(C(=O)O)c1 [5-Aminosalicylic acid]
[1]
  Therapeutic efficacy (DAI score): failed to demonstrate therapeutic efficacy

## Nc1nc2nc[nH]c2c(=S)[nH]1 [6-Thioguanine]
[1]
  Therapeutic efficacy (DAI score): failed to demonstrate therapeutic efficacy

## O=C(O)c1cn(C2CC2)c2cc(N3CCNCC3)c(F)cc2c1=O [Ciprofloxacin, ciprofloxacin]
[2]
  Zones of inhibition/zones of growth reduction: 30.2 mm
[3]
  Zones of inhibition/zones of growth reduction: 47.0 mm
[4]
  Zones of inhibition/zones of growth reduction: 31.7 mm
[5]
  Zones of inhibition/zones of growth reduction: 41.2 mm
[6]
  Zones of inhibition/zones of growth reduction: 44.2 mm
[7]
  Zones of inhibition/zones of growth reduction: 49 mm
[8]
  Zones of inhibition/zones of growth reduction: 28.5 mm
[9]
  Zones of inhibition/zones of growth reduction: 30.2 mm
[10]
  Zones of inhibition/zones of growth reduction: 44.2 mm
Escherichia coli K12; [14]
  Zones of inhibition/zones of growth reduction: 40.0 mm
Escherichia coli K12; live cultures of Lactobacilli
  Zones of inhibition/zones of growth reduction: 40.0 mm
[11]; [14]
  Zones of inhibition/zones of growth reduction: 39.2 mm
[11]; live cultures of Lactobacilli
  Zones of inhibition/zones of growth reduction: 39.2 mm
[12]; [14]
  Zones of inhibition/zones of growth reduction: 33.7 mm
[12]; live cultures of Lactobacilli
  Zones of inhibition/zones of growth reduction: 33.7 mm
[13]; [14]
  Zones of inhibition/zones of growth reduction: 33.7 mm
[13]; live cultures of Lactobacilli
  Zones of inhibition/zones of growth reduction: 33.7 mm

## C[C@]12C=CC(=O)C=C1CC[C@@H]1[C@@H]2[C@@H](O)C[C@@]2(C)[C@H]1CC[C@]2(O)C(=O)CO [Prednisolone]
[1]
  Therapeutic efficacy (DAI score): failed to demonstrate therapeutic efficacy

## O=C(O)c1cc(/N=N/c2ccc(S(=O)(=O)Nc3ccccn3)cc2)ccc1O [Sulfasalazine]
[1]
  Therapeutic efficacy (DAI score): failed to demonstrate therapeutic efficacy

Reference: patent publication US20210338749A1, “METHODS OF TREATMENT OF INFLAMMATORY CONDITIONS AND ASSOCIATED INFECTIONS” (Servatus Ltd., priority 2018, published 2021)
